Test results taken from patent publication US10369093B2, “Stable solution of hexamidine salts in alkanediol-water mixtures, with antimicrobial and skin-moisturising effect” (MINASOLVE GERMANY GMBH, priority 2015, dated 2019).

What was measured:
[1] = according to EP1477157B1; cited from earlier work
[2] = test system: Aspergillus brasiliensis; test: Minimum inhibitory concentration, suspension test; format: cell-based; conditions: 4 days at 30° C.
Experimental: (§1) Minimal inhibitory concentrations against bacteria, fungi and yeasts were determined by means of a suspension test. For this purpose, nine-stage dilution series of the respective test substances were prepared in 1:1 mixtures of CASO broth and distilled water. For the tests with mushrooms and yeasts in each case 2% dextrose was added. Each microorganism was tested separately in a test tube containing 10 ml of said culture medium. To each tube was added 0.1 ml of a suspension containing 5×10^8 colony forming units (CFU) for bacteria and 1×10^7 CFU for fungi and yeasts, respectively. Each tube was incubated for 3 days at 37° C. (bacteria) or for 4 days at 30° C. (fungi and yeasts). The minimum inhibitory concentration was defined as the concentration at which no turbidity or other visible signs of microbial growth were observed after the end of the test period.

[3] = test system: Candida albicans; test: Minimum inhibitory concentration, suspension test; format: cell-based; conditions: 4 days at 30° C.
Experimental: as §1

[4] = test system: Escherichia coli; test: Minimum inhibitory concentration, suspension test; format: cell-based; conditions: 3 days at 37° C.
Experimental: as §1

[5] = test system: Pseudomonas aeruginosa; test: Minimum inhibitory concentration, suspension test; format: cell-based; conditions: 3 days at 37° C.
Experimental: as §1

[6] = test system: Staphylococcus aureus; test: Minimum inhibitory concentration, suspension test; format: cell-based; conditions: 3 days at 37° C.
Experimental: as §1

[7] = test system: forearms of healthy volunteers (human skin); test: Corneometry test for moisturizing effect; format: in vivo; conditions: 3% in H2O
Experimental: To test the moisturizing effect of various substances and mixtures, the test substances were diluted with distilled water to a concentration of 2-3%. The diluted solutions were applied to the forearms of healthy volunteers (number: 12, age: 19-64 years). Before and after the simple application, the skin moisture of the treated skin areas was measured instrumentally with the aid of a Corneometer CM825, combined with a Cutometer dual MPA 580 from Courage & Khazaka. All measurements were preceded by acclimatization of the subjects in a controlled environment (21° C.±1° C., 45%±10% humidity). The measurement results are given as a percentage change from the initial value after 1 h, 2 h, 4 h, 8 h and 24 h and are summarized in Table 4.

[8] = BASF data sheet Elestab HP100; cited from earlier work

Row | Structure (SMILES) | C log P [1] | Minimal Inhibitory Concentration (MIC) [2] [%] | Minimal Inhibitory Concentration (MIC) [3] [%] | Minimal Inhibitory Concentration (MIC) [4] [%] | Minimal Inhibitory Concentration (MIC) [5] [%] | Minimal Inhibitory Concentration (MIC) [6] [%] | corneometry, % change compared to T0 after 1 h [7] | corneometry, % change compared to T0 2 h [7] | corneometry, % change compared to T0 4 h [7] | corneometry, % change compared to T0 8 h [7] | corneometry, % change compared to T0 24 h [7] | compatible pH range [8]
1 | CCCCC(O)CO (centres unmarked) [1,2-hexanediol] | +0.25 |  |  |  |  |  |  |  |  |  |  | 
2 | CCCC(O)CO (centres unmarked) [1,2-pentanediol] |  | 2.5 | 2.5 | 2.5 | 2.5 | 4.0 | +18.8% | +31.6% | +37.7% | +21.6% | +13.1% | 
3 | OCCCCCCCO [1,7-heptanediol] | +0.46 |  |  |  |  |  |  |  |  |  |  | 
4 | OCC(O)CO [glycerin] |  |  |  |  |  |  | +34.3% | +40.2% | +39.5% | +29.9% | +17.5% | 
5 | N=C(N)c1ccc(OCCCCCCOc2ccc(C(=N)N)cc2)cc1 [hexamidine diisethionate, 2-hydroxyethanesulfonic acid-4,4′-[1,6-hexanediylbis(oxy)]dibenzenecarboximidamide] |  | 0.0005 | 0.01 | 0.01 | 0.1 | 0.0025 |  |  |  |  |  | 3-8
